Common to all, as to assay: relative viability (nuclei count vs DMSO), 5 days (fraction); higher = more cells survive
Compound in test [1]: C1/C(=C\C2=CC=CS2)/C(=O)/C(=C/C3=CC=CS3)/C1 + CC1(C)CCC(c2ccc(Cl)cc2)=C(CN2CCN(c3ccc(C(=O)NS(=O)(=O)c4ccc(N[C@H](CCN5CCOCC5)CSc5ccccc5)c(S(=O)(=O)C(F)(F)F)c4)cc3)CC2)C1 [Navitoclax] (partner 0.5 µM)
Put shortly:
(§1)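 Nuclei were stained with Hoechst during a one-step fixation (final 0.05% Triton X-100, 1% formaldehyde, 1 ug/ml Hoechst) carried out 5 days after dosing, then counted on 4× images. The cells, lung cancer lines in 1536-well plates, had been dosed by pin tool the day after seeding with one drug alone or a fixed anchor-drug dose plus five library-drug doses (not always all listed) in √10 steps. Relative viability is the nuclei count in treated wells divided by that in vehicle wells, and each value is the median of duplicate plates.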

Compound in the test “TPCA-1 + Pictilisib”: C1=CC(=CC=C1C2=CC(=C(S2)NC(=O)N)C(=O)N)F [TPCA-1] + CS(=O)(=O)N1CCN(Cc2cc3nc(-c4cccc5[nH]ncc45)nc(N4CCOCC4)c3s2)CC1 [Pictilisib] (partner 1 µM)
Put shortly: as §1

Compound in the test “TPCA-1 + Luminespib”: C1=CC(=CC=C1C2=CC(=C(S2)NC(=O)N)C(=O)N)F [TPCA-1] + CCNC(=O)c1noc(-c2cc(C(C)C)c(O)cc2O)c1-c1ccc(CN2CCOCC2)cc1 [Luminespib] (partner 0.01 µM)
Put shortly:
as §1

On to NCI-H2228, for which the relative viability was determined as 0.823 in test [1] (first compound 0.2 µM); 1.3 in test [1] (first compound 0.6325 µM); 0.904 in test [1] (first compound 2 µM); 0.73 in test [1] (first compound 6.325 µM); 1.05 in test [1] (first compound 20 µM); 0.379 with TPCA-1 + Pictilisib (first compound 0.04 µM). Also, the relative viability was 0.358 in the test with TPCA-1 + Pictilisib (first compound 0.1265 µM); 0.402 in the test with TPCA-1 + Pictilisib (first compound 0.4 µM); 0.454 with TPCA-1 + Pictilisib (first compound 1.265 µM); 0.186 with TPCA-1 + Pictilisib (first compound 4 µM); 0.174 with TPCA-1 + Luminespib (first compound 0.04 µM); 0.139 in the test with TPCA-1 + Luminespib (first compound 0.1265 µM). Besides, the values for the relative viability with TPCA-1 + Luminespib (first compound 0.4 µM), in the test with TPCA-1 + Luminespib (first compound 1.265 µM) and with TPCA-1 + Luminespib (first compound 4 µM) were 0.124, 0.131 and 0.117, respectively.

NCI-H2347: the relative viability was determined as 0.721 in test [1] (first compound 0.2 µM); 0.741 in test [1] (first compound 0.6325 µM); 0.725 in test [1] (first compound 2 µM); 0.857 in test [1] (first compound 6.325 µM); 0.801 in test [1] (first compound 20 µM); 0.588 in the test with TPCA-1 + Pictilisib (first compound 0.04 µM). Besides, the relative viability amounted to 0.568 with TPCA-1 + Pictilisib (first compound 0.1265 µM); 0.901 with TPCA-1 + Pictilisib (first compound 0.4 µM); 0.806 in the test with TPCA-1 + Pictilisib (first compound 1.265 µM); 0.31 with TPCA-1 + Pictilisib (first compound 4 µM); 0.694 with TPCA-1 + Luminespib (first compound 0.04 µM); 0.33 with TPCA-1 + Luminespib (first compound 0.1265 µM). Besides, the relative viability is 0.344 with TPCA-1 + Luminespib (first compound 0.4 µM), 0.453 with TPCA-1 + Luminespib (first compound 1.265 µM) and 0.242 in the test with TPCA-1 + Luminespib (first compound 4 µM).

NCI-H2405: the relative viability in test [1] (first compound 0.2 µM) was determined as 1.23; in test [1] (first compound 0.6325 µM), 0.892; in test [1] (first compound 2 µM), 1.15; in test [1] (first compound 6.325 µM), 0.766; in test [1] (first compound 20 µM), 1.08; in the test with TPCA-1 + Pictilisib (first compound 0.04 µM), 0.487. Besides, the relative viability was 0.353 with TPCA-1 + Pictilisib (first compound 0.1265 µM); 0.493 in the test with TPCA-1 + Pictilisib (first compound 0.4 µM); 0.364 in the test with TPCA-1 + Pictilisib (first compound 4 µM); 0.792 in the test with TPCA-1 + Luminespib (first compound 0.04 µM); 0.627 with TPCA-1 + Luminespib (first compound 0.1265 µM); 0.709 with TPCA-1 + Luminespib (first compound 0.4 µM). Further, the relative viability with TPCA-1 + Luminespib (first compound 1.265 µM) worked out at 0.622; with TPCA-1 + Luminespib (first compound 4 µM), 0.618.

Take NCI-H3122: the relative viability in test [1] (first compound 0.2 µM) came to 1.02; in test [1] (first compound 0.6325 µM), 1.02; in test [1] (first compound 2 µM) it was 1.02; in test [1] (first compound 6.325 µM), 1.01; in test [1] (first compound 20 µM) it was 1.02; in the test with TPCA-1 + Pictilisib (first compound 0.04 µM) it was 0.725. Also, the relative viability amounted to 0.511 with TPCA-1 + Pictilisib (first compound 0.1265 µM); 0.603 with TPCA-1 + Pictilisib (first compound 0.4 µM); 0.612 with TPCA-1 + Pictilisib (first compound 1.265 µM); 0.595 in the test with TPCA-1 + Pictilisib (first compound 4 µM); 0.106 with TPCA-1 + Luminespib (first compound 0.04 µM); 0.0887 in the test with TPCA-1 + Luminespib (first compound 0.1265 µM). In addition, the relative viability was determined as 0.0804 with TPCA-1 + Luminespib (first compound 0.4 µM), 0.0762 with TPCA-1 + Luminespib (first compound 1.265 µM) and 0.0832 with TPCA-1 + Luminespib (first compound 4 µM).

As to PC-3 [JPC-3], the relative viability in test [1] (first compound 0.2 µM) stood at 0.83; in test [1] (first compound 0.6325 µM) it was 0.753; in test [1] (first compound 2 µM), 0.904; in test [1] (first compound 6.325 µM), 0.716; in test [1] (first compound 20 µM), 0.841; in the test with TPCA-1 + Pictilisib (first compound 0.04 µM) it was 0.8. In addition, the relative viability with TPCA-1 + Pictilisib (first compound 0.1265 µM) is 0.714; with TPCA-1 + Pictilisib (first compound 0.4 µM), 0.81; with TPCA-1 + Pictilisib (first compound 1.265 µM), 0.746; in the test with TPCA-1 + Pictilisib (first compound 4 µM), 0.612; in the test with TPCA-1 + Luminespib (first compound 0.04 µM) it was 0.5; in the test with TPCA-1 + Luminespib (first compound 0.1265 µM), 0.639. Moreover, the relative viability in the test with TPCA-1 + Luminespib (first compound 0.4 µM) was determined as 0.682; in the test with TPCA-1 + Luminespib (first compound 1.265 µM), 0.675; in the test with TPCA-1 + Luminespib (first compound 4 µM) it was 0.569.

As to PC-14, the relative viability in test [1] (first compound 0.2 µM) is 1.05; in test [1] (first compound 0.6325 µM), 0.987; in test [1] (first compound 2 µM), 0.978; in test [1] (first compound 6.325 µM), 0.88; in test [1] (first compound 20 µM), 0.999; with TPCA-1 + Pictilisib (first compound 0.04 µM), 0.847. In addition, the relative viability with TPCA-1 + Pictilisib (first compound 0.1265 µM) amounted to 0.605; in the test with TPCA-1 + Pictilisib (first compound 0.4 µM), 0.526; with TPCA-1 + Pictilisib (first compound 1.265 µM), 0.499; in the test with TPCA-1 + Pictilisib (first compound 4 µM), 0.322; with TPCA-1 + Luminespib (first compound 0.04 µM) it was 0.133; with TPCA-1 + Luminespib (first compound 0.1265 µM), 0.165. The relative viability with TPCA-1 + Luminespib (first compound 0.4 µM) was 0.177; with TPCA-1 + Luminespib (first compound 1.265 µM), 0.146; with TPCA-1 + Luminespib (first compound 4 µM) it was 0.143.

As for RERF-LC-KJ, the relative viability in test [1] (first compound 0.2 µM) came out at 0.949; in test [1] (first compound 0.6325 µM), 0.995; in test [1] (first compound 2 µM), 0.965; in test [1] (first compound 6.325 µM), 0.787; in test [1] (first compound 20 µM), 0.86; with TPCA-1 + Pictilisib (first compound 0.04 µM) it was 0.533. Also, the relative viability with TPCA-1 + Pictilisib (first compound 0.1265 µM) stood at 0.493; in the test with TPCA-1 + Pictilisib (first compound 0.4 µM), 0.561; with TPCA-1 + Pictilisib (first compound 1.265 µM) it was 0.44; in the test with TPCA-1 + Pictilisib (first compound 4 µM), 0.466; in the test with TPCA-1 + Luminespib (first compound 0.04 µM) it was 1.3; with TPCA-1 + Luminespib (first compound 0.1265 µM), 1.25. Also, the values for the relative viability with TPCA-1 + Luminespib (first compound 0.4 µM), in the test with TPCA-1 + Luminespib (first compound 1.265 µM) and with TPCA-1 + Luminespib (first compound 4 µM) were 1.26, 1.14 and 0.852, respectively.

As for SK-LU-1, the relative viability was determined as 0.698 in test [1] (first compound 0.2 µM); 0.767 in test [1] (first compound 0.6325 µM); 0.813 in test [1] (first compound 2 µM); 0.969 in test [1] (first compound 6.325 µM); 0.799 in test [1] (first compound 20 µM); 0.797 in the test with TPCA-1 + Pictilisib (first compound 0.04 µM). Further, the relative viability with TPCA-1 + Pictilisib (first compound 0.1265 µM) was 0.465; with TPCA-1 + Pictilisib (first compound 0.4 µM) it was 0.44; with TPCA-1 + Pictilisib (first compound 1.265 µM), 0.436; with TPCA-1 + Pictilisib (first compound 4 µM), 0.317; in the test with TPCA-1 + Luminespib (first compound 0.04 µM) it was 0.232; with TPCA-1 + Luminespib (first compound 0.1265 µM), 0.203. Moreover, the relative viability amounted to 0.212 with TPCA-1 + Luminespib (first compound 0.4 µM), 0.206 with TPCA-1 + Luminespib (first compound 1.265 µM) and 0.215 with TPCA-1 + Luminespib (first compound 4 µM).

For SK-MES-1, the relative viability in test [1] (first compound 0.2 µM) stood at 1.28; in test [1] (first compound 0.6325 µM), 1.3; in test [1] (first compound 2 µM), 1.17; in test [1] (first compound 6.325 µM) it was 1; in test [1] (first compound 20 µM) it was 1.14; in the test with TPCA-1 + Pictilisib (first compound 0.04 µM), 0.403. Besides, the relative viability came out at 0.316 with TPCA-1 + Pictilisib (first compound 0.1265 µM); 0.305 with TPCA-1 + Pictilisib (first compound 0.4 µM); 0.255 with TPCA-1 + Pictilisib (first compound 1.265 µM); 0.276 in the test with TPCA-1 + Pictilisib (first compound 4 µM); 0.876 with TPCA-1 + Luminespib (first compound 0.04 µM); 0.763 with TPCA-1 + Luminespib (first compound 0.1265 µM). For the same cell line, the relative viability in the test with TPCA-1 + Luminespib (first compound 0.4 µM) was 0.677; with TPCA-1 + Luminespib (first compound 1.265 µM), 0.33; with TPCA-1 + Luminespib (first compound 4 µM) it was 0.365.

SW 1573: the relative viability in test [1] (first compound 0.2 µM) was found to be 0.908; in test [1] (first compound 0.6325 µM), 0.979; in test [1] (first compound 2 µM) it was 1.15; in test [1] (first compound 6.325 µM), 0.862; in test [1] (first compound 20 µM) it was 0.833; with TPCA-1 + Pictilisib (first compound 0.04 µM), 0.54. Moreover, the relative viability worked out at 0.419 with TPCA-1 + Pictilisib (first compound 0.1265 µM); 0.506 in the test with TPCA-1 + Pictilisib (first compound 0.4 µM); 0.505 with TPCA-1 + Pictilisib (first compound 1.265 µM); 0.495 in the test with TPCA-1 + Pictilisib (first compound 4 µM); 0.186 in the test with TPCA-1 + Luminespib (first compound 0.04 µM); 0.181 with TPCA-1 + Luminespib (first compound 0.1265 µM). The values for the relative viability with TPCA-1 + Luminespib (first compound 0.4 µM), with TPCA-1 + Luminespib (first compound 1.265 µM) and with TPCA-1 + Luminespib (first compound 4 µM) were 0.217, 0.204 and 0.188, respectively.

The values are drawn from the supplement of paper PMC10307832.
